Data: BindingDB's records for PubMed 9618428 (Glaxo Wellcome Research and Development, 1998)
Several values for one entry are separate records, joined by “and”; a condition that tells them apart may be missing. Equal values may be shown once.

What was measured:
[1] = molecular target: Melatonin receptor type 1A (Sus scrofa, UniProt O02781)
[2] = molecular target: T1, Melatonin receptor type 1B (Homo sapiens, UniProt P49286)
T1 sequence (P49286 whole entry): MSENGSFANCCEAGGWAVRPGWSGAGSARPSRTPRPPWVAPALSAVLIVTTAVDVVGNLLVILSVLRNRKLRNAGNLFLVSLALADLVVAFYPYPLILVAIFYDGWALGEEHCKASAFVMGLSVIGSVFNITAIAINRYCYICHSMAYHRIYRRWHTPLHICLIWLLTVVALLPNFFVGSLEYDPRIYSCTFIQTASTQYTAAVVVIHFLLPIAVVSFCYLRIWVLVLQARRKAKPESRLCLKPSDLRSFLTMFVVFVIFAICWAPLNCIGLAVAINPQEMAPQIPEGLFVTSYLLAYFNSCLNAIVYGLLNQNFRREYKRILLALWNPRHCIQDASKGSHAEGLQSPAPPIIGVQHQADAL

[3] = molecular target: Melatonin receptor type 1A (Homo sapiens, UniProt P48039)
Melatonin receptor type 1A (Homo sapiens, UniProt P48039), sequence (P48039 whole entry): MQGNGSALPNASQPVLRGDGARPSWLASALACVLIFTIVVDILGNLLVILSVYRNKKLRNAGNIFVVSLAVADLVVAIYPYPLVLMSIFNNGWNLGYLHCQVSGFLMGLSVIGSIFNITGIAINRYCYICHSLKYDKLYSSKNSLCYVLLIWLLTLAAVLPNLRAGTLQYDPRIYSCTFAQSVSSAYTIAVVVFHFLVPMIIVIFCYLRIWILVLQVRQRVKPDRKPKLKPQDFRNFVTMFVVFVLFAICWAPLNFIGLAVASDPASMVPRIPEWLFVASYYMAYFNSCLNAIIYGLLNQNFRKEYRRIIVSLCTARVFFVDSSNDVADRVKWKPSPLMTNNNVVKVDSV

Melatonin receptor type 1A (Sus scrofa, UniProt O02781), sequence (O02781 whole entry): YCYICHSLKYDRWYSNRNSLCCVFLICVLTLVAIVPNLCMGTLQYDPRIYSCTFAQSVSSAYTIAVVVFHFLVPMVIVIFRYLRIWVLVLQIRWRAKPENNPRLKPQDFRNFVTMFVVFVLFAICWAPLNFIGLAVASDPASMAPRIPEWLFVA

Compound	Ki [1]	Ki [2]	Ki [3] [nM]
COc1cc2c(CCNC(C)=O)c[nH]c2cc1Cl	0.46 nM and 0.74 nM	–	–
CC(=O)NCCc1c[nH]c2ccc(O)cc12 [N-Acetyltryptamine,5-Hydroxy]	398 nM and 347 nM	302 nM and 148 nM	79.4
COc1cc2c(CCNC(C)=O)c[nH]c2cc1O [melatonin, 6-Hydroxy]	10.2 nM and 25.1 nM	2.23 nM and 1.69 nM	0.54
COc1ccc2[nH]cc(CCNC(C)=O)c2c1	0.25 nM and 0.24 nM	–	–
CC(=O)NCCN1CCc2ccc3c(c21)CCO3 [NSC_5311134]	0.61 nM and 0.33 nM	0.16 nM	0.14
CC(=O)NCCc1c(Cc2ccccc2)[nH]c2ccccc12 [CAS_117946-91-5]	933 nM and 676 nM	–	–
COc1ccc2[nH]c(I)c(CCNC(C)=O)c2c1	0.03 nM and 0.04 nM	–	–
